Columns and labels:
Format in all cases: cell-based, murine
BV-2 cell [1] = experiment: p-p65 and p-IκB-α expression in LPS-stimulated cells; conditions: LPS + NTP + ANA-12, FIG. 6F-H
Procedure: (§1) Immortal BV-2 murine microglial cells, a gift from Dr. Ying Chen of Sun Yat-sen Memorial Hospital, Sun Yat-sen University were cultured as described (refer Non-Patent Document 2). BV-2 cultures were treated with 0.1 NU/mL NTP, then given lipopolysaccharides (1000 ng/mL, LotL2880, O55:B5, Sigma-Aldrich, St. Louis, Mo., USA) 12 h later.
Western blotting and semi-quantitative analyses were performed following previously described procedures (refer Liao W, Jiang M J, Li M, Jin C L, Xiao S H, Fan S N, Fang W L, Zheng Y Q and Liu J. Magnesium Elevation Promotes Neuronal Differentiation While Suppressing Glial Differentiation of Primary Cultured Adult Mouse Neural Progenitor Cells through ERK/CREB Activation. Frontiers in Neuroscience 2017; 11:). In brief, proteins in cerebral cortex and hippocampus were extracted with lysis buffer for 30 min, followed by centrifugation at 14,000 rpm for 15 min at […] to obtain the supernatant for western blot analysis. Primary antibodies and dilution rates used were listed as follow: NF-κB (p65), 1:1000; p-IκBα, 1:500 and β-actin, 1:1000. Primary antibodies against NF-κB (p65), p-IκBα and β-actin were purchased from Cell Signaling Technology Inc (MA, USA). […] The quantification of protein expression was analyzed by Image J (National Institutes of Health, Md., USA).

BV-2 cell [2] = experiment: BDNF level in LPS-treated BV-2 cells; conditions: LPS + NTP + ANA12, FIG. 6E
Procedure: as §1

BV-2 cell [3] = experiment: IL-1β, IL-6, TNF-α expression in LPS-treated BV-2 cells; conditions: LPS + NTP, pre-treated with 10 uM ANA12 1 h before NTP, FIG. 6A-C
Procedure: as §1

O=C(Nc1ccccc1C(=O)NC1CCCCNC1=O)c1cc2ccccc2s1 (stereo not drawn) [ANA12]
activation of p-IκB-α (BV-2 cell [1]): abolished by ANA-12
activation of p-P65 (BV-2 cell [1]): abolished by ANA-12
effect of NTP on BDNF (BV-2 cell [2]): abolished by ANA12
expression of IL-1β (BV-2 cell [3]): increased after ANA12 administration
expression of IL-6 (BV-2 cell [3]): increased after ANA12 administration
expression of TNF-α (BV-2 cell [3]): increased after ANA12 administration

— patent US20220096561A1, “INHIBITING OR ALLEVIATING AGENT FOR INFLAMMATION IN THE BRAIN” (NIPPON ZOKI PHARMACEUTICAL CO., LTD., priority 2019, published 2022)
